Measurements: ChEMBL document CHEMBL1629619, “qnrD, a novel gene conferring transferable quinolone resistance in Salmonella enterica serovar Kentucky and Bovismorbificans strains of human origin” (2009)
In brackets after ≈: the same amount, converted by molar mass. Activity calls are given as the source filed them. The calls are words filed in the database; no cut-off is given here.

Legend:
[1] = Antimicrobial activity against Salmonella enterica serovar Kentucky by broth microdilution assay
[2] = Antimicrobial activity against Salmonella enterica serovar Bovismorbificans by broth microdilution assay; assay type: functional, Salmonella enterica subsp. enterica serovar Bovismorbificans
Escherichia coli [3] = assay: Antimicrobial activity against Escherichia coli DH10B by broth microdilution assay; assay type: functional; details: K-12 DH10B
Escherichia coli [4] = assay: Antimicrobial activity against Escherichia coli DH10B harboring pBR322 by broth microdilution assay; assay type: functional; details: K-12 DH10B
Escherichia coli [5] = assay: Antimicrobial activity against Escherichia coli DH10B harboring pBR322 with Salmonella enterica HN-GSS-2007-057 qnrA1 gene by broth microdilution assay; assay type: functional; details: K-12 DH10B
Escherichia coli [6] = assay: Antimicrobial activity against Escherichia coli DH10B harboring pBR322 with Salmonella enterica HN-GSS-2007-057 qnrS1 gene by broth microdilution assay; assay type: functional; details: K-12 DH10B
Escherichia coli [7] = assay: Antimicrobial activity against Escherichia coli DH10B harboring pBR322 with Salmonella enterica HN-GSS-2007-057 qnrD gene by broth microdilution assay; assay type: functional; details: K-12 DH10B
Escherichia coli [8] = assay: Antimicrobial activity against Escherichia coli DH10B harboring p2007057 by broth microdilution assay; assay type: functional; details: K-12 DH10B
Salmonella enterica [9] = assay: Antimicrobial activity against Salmonella enterica HN-GSS2006-142 by broth microdilution assay; assay type: functional, organism-based
Salmonella enterica [10] = assay: Antimicrobial activity against Salmonella enterica HN-GSS2007-0.033 by broth microdilution assay; assay type: functional, organism-based
Salmonella enterica [11] = assay: Antimicrobial activity against Salmonella enterica HN-GSS2007-0.056 by broth microdilution assay; assay type: functional, organism-based
Salmonella enterica [12] = assay: Antimicrobial activity against Salmonella enterica HN-GSS-2007-057 by broth microdilution assay; assay type: functional, organism-based

Compound	MIC [1] [µg/mL]	MIC [2] [µg/mL]	MIC (Escherichia coli [3]) [µg/mL]	MIC (Escherichia coli [4]) [µg/mL]	MIC (Escherichia coli [5]) [µg/mL]	MIC (Escherichia coli [6]) [µg/mL]	MIC (Escherichia coli [7]) [µg/mL]	MIC (Escherichia coli [8]) [µg/mL]	Activity (Salmonella enterica [9])	Activity (Salmonella enterica [10])	Activity (Salmonella enterica [11])	Activity (Salmonella enterica [12])
O=C(O)c1cn(C2CC2)c2cc(N3CCNCC3)c(F)cc2c1=O [CIPROFLOXACIN]	0.125 (≈ 0.377 µM)	–	–	–	–	–	–	–	–	–	–	–
CCn1cc(C(=O)O)c(=O)c2ccc(C)nc21 [NALIDIXIC ACID]	–	8 (≈ 34.4 µM)	2 (≈ 8.61 µM)	2 (≈ 8.61 µM)	8 (≈ 34.4 µM)	8 (≈ 34.4 µM)	4 (≈ 17.2 µM)	8 (≈ 34.4 µM)	–	–	–	–
CC1COc2c(N3CCN(C)CC3)c(F)cc3c(=O)c(C(=O)O)cn1c23 (stereo unspecified) [OFLOXACIN]	–	–	–	0.032 (≈ 0.0886 µM)	0.25 (≈ 0.692 µM)	–	0.125 (≈ 0.346 µM)	0.25 (≈ 0.692 µM)	Active	Active	Active	Active
CCn1cc(C(=O)O)c(=O)c2cc(F)c(N3CCNCC3)cc21 [NORFLOXACIN]	–	–	0.015 (≈ 0.047 µM)	0.015 (≈ 0.047 µM)	0.25 (≈ 0.783 µM)	0.5 (≈ 1.57 µM)	0.06 (≈ 0.188 µM)	0.125 (≈ 0.391 µM)	Active	Active	Active	Active
